Laboratory results as given in ChEMBL document CHEMBL2169811, “Oncoepigenomics: making histone lysine methylation count” (Eur J Med Chem, 2012).
Blank lines part the entries; values can stand above or below the compound they belong to.

Assays:
[1] = target: T1, Histone-lysine N-methyltransferase EHMT2 (Homo sapiens, UniProt Q96KQ7); assay: Inhibition of G9a
T1 sequence (Q96KQ7 whole entry): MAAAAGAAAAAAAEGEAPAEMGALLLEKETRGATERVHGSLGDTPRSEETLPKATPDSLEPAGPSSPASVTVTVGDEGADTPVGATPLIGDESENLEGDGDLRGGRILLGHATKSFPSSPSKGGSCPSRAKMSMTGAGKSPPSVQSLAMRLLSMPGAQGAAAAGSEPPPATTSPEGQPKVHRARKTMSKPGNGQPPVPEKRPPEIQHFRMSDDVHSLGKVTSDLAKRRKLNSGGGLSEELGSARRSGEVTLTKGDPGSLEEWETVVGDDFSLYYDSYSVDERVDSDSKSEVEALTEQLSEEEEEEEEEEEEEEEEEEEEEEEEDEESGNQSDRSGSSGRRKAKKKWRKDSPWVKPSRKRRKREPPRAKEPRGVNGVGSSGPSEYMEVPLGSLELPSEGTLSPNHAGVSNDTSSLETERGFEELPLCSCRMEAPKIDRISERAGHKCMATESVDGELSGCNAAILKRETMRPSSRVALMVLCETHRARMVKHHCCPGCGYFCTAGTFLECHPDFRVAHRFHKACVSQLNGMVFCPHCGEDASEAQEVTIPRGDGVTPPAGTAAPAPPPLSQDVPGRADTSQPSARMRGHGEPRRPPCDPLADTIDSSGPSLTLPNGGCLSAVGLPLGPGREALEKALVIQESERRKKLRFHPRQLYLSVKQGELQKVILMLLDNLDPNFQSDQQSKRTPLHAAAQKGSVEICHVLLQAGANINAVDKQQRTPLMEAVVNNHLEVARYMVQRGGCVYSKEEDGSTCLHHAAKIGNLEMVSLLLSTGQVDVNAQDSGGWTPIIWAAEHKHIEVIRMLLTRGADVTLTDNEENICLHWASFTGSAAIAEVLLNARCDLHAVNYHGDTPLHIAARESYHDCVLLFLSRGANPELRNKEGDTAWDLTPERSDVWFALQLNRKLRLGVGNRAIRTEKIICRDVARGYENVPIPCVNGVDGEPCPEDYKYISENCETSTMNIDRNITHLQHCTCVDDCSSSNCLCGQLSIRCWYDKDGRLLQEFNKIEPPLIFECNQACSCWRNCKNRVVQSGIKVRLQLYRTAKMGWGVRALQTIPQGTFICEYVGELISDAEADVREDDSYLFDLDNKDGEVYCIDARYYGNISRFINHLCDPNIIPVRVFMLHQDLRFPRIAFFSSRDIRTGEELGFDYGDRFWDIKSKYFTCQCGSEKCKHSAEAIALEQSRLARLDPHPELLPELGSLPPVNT

[2] = target: T2, Histone-lysine N-methyltransferase SUV39H1 (Homo sapiens, UniProt O43463)
T2 sequence (O43463 whole entry): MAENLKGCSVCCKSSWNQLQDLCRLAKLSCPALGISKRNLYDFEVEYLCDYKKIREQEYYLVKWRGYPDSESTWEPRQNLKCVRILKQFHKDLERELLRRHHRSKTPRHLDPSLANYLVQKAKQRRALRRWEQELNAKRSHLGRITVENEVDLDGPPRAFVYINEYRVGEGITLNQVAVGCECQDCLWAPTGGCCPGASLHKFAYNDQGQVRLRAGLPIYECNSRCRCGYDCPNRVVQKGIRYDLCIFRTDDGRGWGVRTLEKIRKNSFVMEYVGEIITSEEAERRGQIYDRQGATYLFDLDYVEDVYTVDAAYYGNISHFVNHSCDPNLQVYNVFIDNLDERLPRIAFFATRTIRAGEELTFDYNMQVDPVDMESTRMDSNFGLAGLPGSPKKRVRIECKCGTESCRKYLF

[3] = target: Lysine-specific histone demethylase 1A (Homo sapiens, UniProt O60341)
Description: Inhibition of full length N-terminal 6x His-tagged human LSD1 expressed in Escherichia coli BL21 (DE3) using H3K4me2 peptide as substrate by luminol dependent chemiluminescence assay

[4] = target: T3, Lysine-specific demethylase 4E (Homo sapiens, UniProt B2RXH2); assay: Inhibition of human JMJD2E
T3 sequence (B2RXH2 whole entry): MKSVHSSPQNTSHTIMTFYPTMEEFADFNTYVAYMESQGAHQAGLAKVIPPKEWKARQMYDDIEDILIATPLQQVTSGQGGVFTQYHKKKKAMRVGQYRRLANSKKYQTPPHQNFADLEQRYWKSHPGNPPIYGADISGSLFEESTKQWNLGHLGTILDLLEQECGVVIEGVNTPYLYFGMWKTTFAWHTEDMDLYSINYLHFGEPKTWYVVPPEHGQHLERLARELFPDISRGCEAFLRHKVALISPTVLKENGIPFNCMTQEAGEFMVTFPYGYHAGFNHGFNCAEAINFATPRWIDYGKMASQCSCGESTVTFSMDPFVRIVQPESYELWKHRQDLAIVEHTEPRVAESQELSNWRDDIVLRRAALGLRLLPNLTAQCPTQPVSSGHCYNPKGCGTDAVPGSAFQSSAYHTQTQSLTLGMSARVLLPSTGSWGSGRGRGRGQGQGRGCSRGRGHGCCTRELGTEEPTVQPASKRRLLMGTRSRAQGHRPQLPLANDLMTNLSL

[5] = target: T3, Lysine-specific demethylase 4E
Description: Inhibition of JMJD2E catalytic domain by mass spectrophotometric analysis

HCT-116 [6] = assay: Growth inhibition of human HCT116 cells after 24 to 48 hrs by MTT assay; format: functional
RKO = assay: Growth inhibition of human RKO cells expressing p53 after 24 to 48 hrs by MTT assay; format: functional
[7] = target: T1, Histone-lysine N-methyltransferase EHMT2
Description: Inhibition of GST-tagged G9a after 1 hr by radioactive filter-binding assay

[8] = target: T2, Histone-lysine N-methyltransferase SUV39H1; assay: Inhibition of SUV39H1 using [3H]-SAM as substrate preincubated for 10 mins before substrate addition measured after 30 mins by scintillation counter
[9] = target: T1, Histone-lysine N-methyltransferase EHMT2; assay: Inhibition of G9a using [3H]-SAM as substrate preincubated for 10 mins before substrate addition measured after 30 mins by scintillation counter
[10] = target: T4, Histone-arginine methyltransferase CARM1 (Homo sapiens, UniProt Q86X55)
T4 sequence (Q86X55 whole entry): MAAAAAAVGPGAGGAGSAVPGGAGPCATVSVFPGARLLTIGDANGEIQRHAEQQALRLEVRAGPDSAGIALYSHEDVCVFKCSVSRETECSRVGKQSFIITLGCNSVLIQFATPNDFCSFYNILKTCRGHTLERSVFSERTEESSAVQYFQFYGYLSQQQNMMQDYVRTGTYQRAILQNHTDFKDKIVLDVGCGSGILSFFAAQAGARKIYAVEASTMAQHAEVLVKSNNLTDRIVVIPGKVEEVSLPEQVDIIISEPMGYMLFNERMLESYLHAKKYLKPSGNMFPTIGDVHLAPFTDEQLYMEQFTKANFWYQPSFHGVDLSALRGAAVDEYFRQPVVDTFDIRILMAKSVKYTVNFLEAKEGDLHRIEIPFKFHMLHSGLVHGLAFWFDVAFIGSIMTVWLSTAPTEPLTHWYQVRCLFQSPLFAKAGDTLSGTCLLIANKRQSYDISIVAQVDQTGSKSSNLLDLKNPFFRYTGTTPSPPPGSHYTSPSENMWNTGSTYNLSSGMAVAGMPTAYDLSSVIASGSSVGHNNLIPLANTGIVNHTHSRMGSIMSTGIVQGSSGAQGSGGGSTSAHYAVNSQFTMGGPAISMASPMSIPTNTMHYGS
Description: Inhibition of human CARM1 expressed in Escherichia coli BL21 (DE3) using [3H]-SAM as substrate preincubated for 10 mins before substrate addition measured after 30 mins by scintillation counter

HeLa = assay: Growth inhibition of human HeLa cells after 48 hrs by MTT assay; format: functional
HCT-116 [11] = assay: Growth inhibition of human HCT116 cells after 48 hrs by MTT assay; format: functional; conditions: HCT-116, 48 h
PC-3 = assay: Growth inhibition of human PC3 cells after 48 hrs by MTT assay; format: functional; conditions: PC-3, 48 h
[12] = Growth inhibition of human KYSE-150 cells after 48 hrs by MTT assay; format: functional; conditions: KYSE-150, 48 h
SH-SY5Y = assay: Growth inhibition of human SH-SY5Y cells after 48 hrs by MTT assay; format: functional
[13] = target: T5, N-lysine methyltransferase SMYD2 (Homo sapiens, UniProt Q9NRG4); assay: Competitive binding affinity to full length human SMYD2 amino acid 1 to 433 expressed in Escherichia coli BL21 (DE3) after 90 mins by radioactive filter-binding assay in presence of P53 peptide
Homo sapiens [14] = species on record: Homo sapiens; assay: Selectivity ratio of IC50 for SET7/9 to IC50 for human SMYD2
Homo sapiens [15] = species on record: Homo sapiens; assay: Selectivity ratio of IC50 for G9a to IC50 for human SMYD2
Homo sapiens [16] = species on record: Homo sapiens; assay: Selectivity ratio of IC50 for GLP to IC50 for human SMYD2
Homo sapiens [17] = species on record: Homo sapiens; assay: Selectivity ratio of IC50 for DOT1L to IC50 for human SMYD2
Homo sapiens [18] = species on record: Homo sapiens; assay: Selectivity ratio of IC50 for EZH2 to IC50 for human SMYD2
Homo sapiens [19] = species on record: Homo sapiens; assay: Selectivity ratio of IC50 for SMYD3 to IC50 for human SMYD2
[20] = target: T5, N-lysine methyltransferase SMYD2; assay: Inhibition of full length human SMYD2 amino acid 1 to 433 expressed in Escherichia coli BL21 (DE3) using Biotinaminohexanoyl- GSRAHSSHLKSKKGQSTSRH as substrate after 75 mins by AlphaScreen assay
[21] = target: Protein arginine N-methyltransferase 1 (Homo sapiens, UniProt Q99873)
Description: Inhibition of PRMT1 using [3H]-SAM as substrate preincubated for 10 mins before substrate addition measured after 30 mins by scintillation counter

[22] = target: T3, Lysine-specific demethylase 4E; assay: Inhibition of JMJD2E

T5 sequence (Q9NRG4 whole entry): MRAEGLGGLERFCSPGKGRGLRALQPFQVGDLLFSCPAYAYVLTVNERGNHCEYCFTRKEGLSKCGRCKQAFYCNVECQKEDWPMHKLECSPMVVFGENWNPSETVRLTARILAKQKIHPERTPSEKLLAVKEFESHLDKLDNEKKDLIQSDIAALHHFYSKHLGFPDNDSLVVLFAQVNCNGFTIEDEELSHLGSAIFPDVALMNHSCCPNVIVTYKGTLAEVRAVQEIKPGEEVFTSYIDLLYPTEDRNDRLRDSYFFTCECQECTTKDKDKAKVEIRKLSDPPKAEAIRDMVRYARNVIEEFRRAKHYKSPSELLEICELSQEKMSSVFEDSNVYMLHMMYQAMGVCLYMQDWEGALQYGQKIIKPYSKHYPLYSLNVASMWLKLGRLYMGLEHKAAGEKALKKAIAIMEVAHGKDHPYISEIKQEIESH
Sequence of Protein arginine N-methyltransferase 1 (Q99873 whole entry): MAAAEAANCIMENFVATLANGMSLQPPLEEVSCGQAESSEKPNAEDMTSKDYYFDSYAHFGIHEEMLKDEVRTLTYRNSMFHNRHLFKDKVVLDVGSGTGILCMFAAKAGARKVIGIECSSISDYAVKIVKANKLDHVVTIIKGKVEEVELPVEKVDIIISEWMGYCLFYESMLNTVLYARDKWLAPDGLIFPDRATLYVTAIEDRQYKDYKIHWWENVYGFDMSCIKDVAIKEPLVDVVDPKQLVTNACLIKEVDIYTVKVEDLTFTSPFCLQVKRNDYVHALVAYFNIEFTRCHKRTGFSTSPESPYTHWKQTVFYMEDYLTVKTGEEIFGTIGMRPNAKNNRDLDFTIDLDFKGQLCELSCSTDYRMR

- IC50 [3]: 0.5 µM
SMILES: C/N=C(\NC)NCCCNCCCNCCCN/C(=N/C)NC

- IC50 [4]: 2.5 µM
SMILES: O=C(O)c1ccnc(C(=O)O)c1Nc1ccccc1F

- GI50 (HCT-116 [6]): 2.5 µM
SMILES: CCNCCCCNCCCCNCCCCNCCCCNC/C=C\CNCCCCNCCCCNCCCCNCCCCNCC
- GI50 (RKO): 2.5 µM

- IC50 [7]: > 50 µM
SMILES: CN1C(=O)[C@H]2C[C@]3([C@]45C[C@@H]6C(=O)N(C)[C@H](CO)C(=O)N6[C@H]4Nc4ccccc45)c4ccccc4N[C@@H]3N2C(=O)[C@H]1CO

- GI50 (HeLa): 6 µM
- GI50 (HCT-116 [11]): 6 µM
- GI50 (PC-3): 6 µM
- GI50 (SH-SY5Y): 6 µM
SMILES: NC1CC1c1cccc(OCC[C@H](NC(=O)c2ccccc2)C(=O)NCc2ccccc2)c1 (stereo partly drawn)
- GI50 [12]: 6 µM

- IC50 [5]: 0.18 µM
SMILES: NCCNC(=O)c1ccnc(-c2cc(C(=O)O)ccn2)c1

- IC50 [22]: 5.9 µM
SMILES: O=C(O)/C=C/C(=O)N(O)CCCCNCc1ccc(COC(=O)Nc2cccc3ccccc23)cc1
- GI50 [12]: 5.1 µM

The remaining lines, values behind:

SMILES: CN1C(=O)[C@@]23C[C@]4([C@]56C[C@@]78SS[C@@](C)(C(=O)N7[C@H]5Nc5ccccc56)N(C)C8=O)c5ccccc5N[C@@H]4N2C(=O)[C@]1(C)SS3
- IC50 [1]: 0.63 µM
- IC50 [2]: 0.53 µM

SMILES: CN1C(=O)[C@]23CC4=CC=C[C@H](O)[C@H]4N2C(=O)[C@@]1(CO)SS3 [GLIOTOXIN]
- IC50 [1]: 0.53 µM
- IC50 [2]: 0.26 µM

SMILES: O=C(O)c1ccnc(-c2cc(C(=O)NCCc3ccccc3)ccn2)c1
- IC50 [5]: 0.11 µM

SMILES: CNc1ncnc2c1ncn2[C@@H]1O[C@H](CN(CCI)CCC[C@H](N)C(=O)O)[C@@H](O)[C@H]1O
- IC50 [8]: > 100 µM
- IC50 [9]: > 100 µM
- IC50 [10]: > 100 µM

SMILES: O=C1COc2c(CCNCCN(C(=O)CCNCCc3ccc(Cl)c(Cl)c3)C3CCCCC3)ccc(O)c2N1
- Ki [13]: 0.3 µM
- Ratio IC50 (Homo sapiens [14]): 700
- Ratio IC50 (Homo sapiens [15]): 700
- Ratio IC50 (Homo sapiens [16]): 700
- Ratio IC50 (Homo sapiens [17]): 700
- Ratio IC50 (Homo sapiens [18]): 700
- Ratio IC50 (Homo sapiens [19]): 700
- IC50 [20]: 0.12 µM

SMILES: CN1C(=O)[C@]23C[C@@]4([C@@]56C[C@]78SS[C@](CO)(C(=O)N7[C@@H]5Nc5ccccc56)N(C)C8=O)c5ccccc5N[C@H]4N2C(=O)[C@@]1(CO)SS3
- IC50 [7]: 1.7 µM

SMILES: CCNCCCCNCCCCNCCCCNCCCCNC/C=C/CNCCCCNCCCCNCCCCNCCCCNCC
- GI50 (HCT-116 [6]): 2.5 µM
- GI50 (RKO): 2.5 µM

SMILES: N[C@@H](CCCN(CCI)C[C@H]1O[C@@H](n2cnc3c(NCc4ccccc4)ncnc32)[C@H](O)[C@@H]1O)C(=O)O
- IC50 [8]: > 100 µM
- IC50 [9]: > 100 µM
- IC50 [10]: > 100 µM
- IC50 [21]: > 100 µM

SMILES: N[C@@H]1C[C@H]1c1ccc(OCC[C@H](NC(=O)c2ccccc2)C(=O)NCc2ccccc2)cc1
- GI50 (HeLa): 6 µM
- GI50 (HCT-116 [11]): 6 µM
- GI50 (PC-3): 6 µM
- GI50 [12]: 6 µM
- GI50 (SH-SY5Y): 6 µM

SMILES: CS[C@]1(CO)C(=O)N2[C@H]3C(=CC=C[C@@H]3OC(C)=O)C[C@@]2(SC)C(=O)N1C
- IC50 [1]: > 10 µM
- IC50 [2]: > 10 µM
